Experimental data from patent publication US11596614B2, “Treatment of intrahepatic cholestatic diseases” (CymaBay Therapeutics, Inc., priority 2014, dated 2023).

Key:
[1] = tested on: subjects with mixed dyslipidemia; details: cited from earlier work
PPARa = biological target: T1, PPARa (Homo sapiens, UniProt Q07869); test: Specificity for PPARδ compared with PPARa; type: biochemical
T1 sequence (Q07869 1-468): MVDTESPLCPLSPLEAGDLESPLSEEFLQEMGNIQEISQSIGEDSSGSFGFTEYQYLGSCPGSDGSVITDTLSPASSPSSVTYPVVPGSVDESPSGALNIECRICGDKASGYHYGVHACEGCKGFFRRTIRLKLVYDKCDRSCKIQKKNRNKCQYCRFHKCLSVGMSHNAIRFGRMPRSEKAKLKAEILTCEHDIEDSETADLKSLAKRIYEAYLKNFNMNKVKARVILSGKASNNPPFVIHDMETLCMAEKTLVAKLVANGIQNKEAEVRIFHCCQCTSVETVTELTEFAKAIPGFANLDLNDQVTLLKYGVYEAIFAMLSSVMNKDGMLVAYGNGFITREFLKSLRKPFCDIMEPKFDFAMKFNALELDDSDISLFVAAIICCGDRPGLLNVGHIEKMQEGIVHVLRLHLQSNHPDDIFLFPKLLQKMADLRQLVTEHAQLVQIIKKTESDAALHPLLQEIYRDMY
From the text: It is specific (>600-fold and >2500-fold compared with PPARa and peroxisome proliferator-activated receptor-γ receptors). PPARδ activation stimulates fatty acid oxidation and utilization, improves plasma lipid and lipoprotein metabolism, glucose utilization, and mitochondrial respiration, and preserves stem cell homeostasis.

subjects with PBC = test: Example 1: trial in subjects with PBC on UDCA; type: in vivo, human; details: on treatment, 50 or 200 mg/day
From the text: The trial subjects were adult, male or female, with a diagnosis of PBC by at least two of the following three criteria: (a) a history of alkaline phosphatase (ALP) above the upper limit of normal (ULN) for at least six months, (b) positive anti-mitochondrial antibody titers> 1/40 on immunofluorescence or M2 positive by enzyme linked immunosorbent assay or positive PBC-specific antinuclear antibodies, and (c) documented liver biopsy result consistent with PBC, on a stable and recommended dose of UDCA for the past twelve months, and ALP≥1.67×ULN. Exclusion criteria included AST or ALT≥3×ULN, total bilirubin (TBIL)≥2×ULN, autoimmune hepatitis or a history of chronic viral hepatitis, PSC, the current use of fibrates or simvastatin, the use of colchicine, methotrexate, azathioprine, or systemic steroids in the previous two months, the use of an experimental treatment for PBC, and the use of an experimental or unapproved immunosuppressant. The primary study endpoint was decrease in ALP, and the secondary endpoint was the responder rate for subjects achieving ALP<1.67×ULN and total bilirubin within normal limit, and >15% decrease in ALP. […] According to the original statistical plan, changes in ALP were calculated using the last observation carried forward. […]

[2] = Preclinical elimination study; type: in vivo
[3] = tested on: subjects with an intrahepatic cholestatic disease such as PBC; test: Example 2: treatment of adult subjects with an intrahepatic cholestatic disease such as PBC; type: in vivo, human; details: 5, 10, 25, or 50 mg/day orally
Experimental: Subjects are permitted their usual other medications, including UDCA. […] At each visit, after a 12-hour fast, blood is drawn and urine collected; and a standard metabolic panel, complete blood count, and standard urinalysis are performed. Blood is analyzed for TC, HDL-C, TG, VLDL-C, LDL-C, and apolipoprotein B, for liver function markers such as total and bone-specific alkaline phosphatases, for γ-glutamyl transpeptidase, and also for total and conjugated bilirubin. The subjects also maintain health diaries, which are reviewed at each visit.

[4] = gradient-gel electrophoresis, cited from earlier work
[5] = once daily oral, 8 weeks, seladelpar 50 or 100 mg, ATV 20 mg

Structure (SMILES): CC(C)c1c(C(=O)Nc2ccccc2)c(-c2ccccc2)c(-c2ccc(F)cc2)n1CC[C@@H](O)C[C@@H](O)CC(=O)O [ATV, atorvastatin, reference compound]
- decrease of large LDL particles ([1]; once daily oral, 8 weeks, ATV 20 mg): 30%
- decrease of small/very small LDL particles [1, 5]: 25%

Structure (SMILES): CCO[C@H](COc1ccc(C(F)(F)F)cc1)CSc1ccc(OCC(=O)O)c(C)c1 [Seladelpar, (R)-2-(4-((2-ethoxy-3-(4-(trifluoromethyl)phenoxy)propyl)thio)-2-methylphenoxy)acetic acid]
- specificity for PPARδ compared with PPARa (PPARa): > 600 fold
- adverse events of pruritus (subjects with PBC): no adverse events of pruritus were reported
- distribution of drug in bile [2]: concentrated in bile
- improvement in disease (ALP and GGT) [3]: a decrease in ALP and GGT
- safety and tolerability ([1]; 50 or 100 mg once daily oral, 8 weeks): safe and generally well-tolerated
- reduction of high-sensitivity C-reactive protein ([1]; compared to placebo, seladelpar 50 or 100 mg once daily oral alone and in combination with ATV 20 mg, 8 weeks, P<0.05): 43-72%
- raise of HDL-C ([1]; compared to placebo, seladelpar 50 or 100 mg once daily oral alone and in combination with ATV 20 mg, 8 weeks): 1-12%
- reduction of the percentage of subjects meeting the criteria for metabolic syndrome ([1]; mixed dyslipidemia): > 2 fold
- decrease of small/very small LDL particles [1, 5]: 40-48%
- increase of large LDL particles ([1]; once daily oral, 8 weeks, seladelpar 50 or 100 mg): 34-44%
- conversion of LDL particle size pattern B (predominant LDL particle size less than 25.75 nm) [4]: to pattern I or A
- conversion of LDL particle size pattern I (predominant LDL particle size 25.75 nm to 26.34 nm) ([4]; pattern A = predominant LDL particle size greater than 26.34 nm): to pattern A
